Source: ChEMBL document CHEMBL1201862, “PubChem BioAssay data set” (2004)
Active and inactive are the calls of the source.

Legend:
[1] = inhibitors of firefly luciferase expression or activity, dose response, H4 neuroglioma cells, luminescence (AID 1990); type: functional, cell-based
[2] = system: BJ; assay: cytotoxicity toward BJ-TERT fibroblasts, dose response, cell-based, RAS-independent, luminescence (AID 1933); type: functional; conditions: Homo sapiens
[3] = Luminescence Cell-Based Dose Response HTS to Identify Inhibitors of 5'UTR Stem-Loop Driven Prion Protein mRNA Translation in H4 Neuroglioblastoma Cells. [Related pubchem assays: 1827 (Project Summary), 1813 (Primary HTS)]; type: functional
[4] = inhibitors of SNCA 5'UTR-driven reporter translation, confirmation, H4 neuroglioma cells, luminescence (AID 1988); type: functional, cell-based
[5] = system: BJ; assay: cells; type: functional, cell-based; conditions: Homo sapiens
[6] = growth suppression of PTEN-null colon cells, dose response, cell-based, HCT116 PTEN knockout (AID 1047); type: functional;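 also: HCT116 colon tumor cells with PTEN knocked out; cells exposed to compound for 60 hours before readout; potency for loss of cell viability measured by luminescence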
[7] = target: Galanin receptor type 2 (Homo sapiens, UniProt O43603); assay: Dose Response cell-based high-throughput screening assay to identify agonists of galanin receptor 2 (GALR2). [Related pubchem assays: 864 ]; type: functional
Chain of Galanin receptor type 2 (O43603 whole entry): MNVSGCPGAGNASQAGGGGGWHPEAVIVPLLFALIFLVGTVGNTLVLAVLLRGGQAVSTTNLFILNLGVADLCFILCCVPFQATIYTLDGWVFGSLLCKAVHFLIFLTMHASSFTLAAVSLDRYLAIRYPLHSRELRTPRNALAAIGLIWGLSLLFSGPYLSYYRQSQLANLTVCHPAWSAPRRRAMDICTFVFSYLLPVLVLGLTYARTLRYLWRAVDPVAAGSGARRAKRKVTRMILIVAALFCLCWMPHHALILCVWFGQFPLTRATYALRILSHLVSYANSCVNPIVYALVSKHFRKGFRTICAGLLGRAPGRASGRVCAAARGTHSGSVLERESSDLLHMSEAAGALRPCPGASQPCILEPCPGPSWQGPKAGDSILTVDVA

[8] = growth suppression of beta-catenin-knockout colon cells, dose response, cell-based, HCT116, human colon tumor (AID 1045); type: functional;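 also: HCT116 colon tumor cells with beta catenin knocked out; cells exposed to compound for 60 hours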
[9] = system: BJ; assay: cytotoxicity toward BJ-TERT-LT-ST fibroblasts, dose response, cell-based, RAS-independent, luminescence (AID 1935); type: functional; conditions: Homo sapiens;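 also: BJ fibroblasts immortalized with TERT plus LT and ST oncogenes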
[10] = cytotoxicity toward DRD oncogenic fibroblasts, dose response, cell-based, non-viral oncogenic, luminescence (AID 1934); type: functional; conditions: Homo sapiens
[11] = Cytotoxicity screening for potential Inhibitors of Bacterial Capsule Biogenesis. [Related pubchem assays (depositor defined):AID488970]; type: functional
[12] = system: BJ; assay: cytotoxicity toward Ras-transformed BJeLR fibroblasts, dose response, cell-based, alamar blue fluorescence, cherrypicked samples (AID 2631); type: functional; conditions: Homo sapiens;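 also: confirmatory dose-response assay in RAS-dependent BJ fibroblasts engineered with TERT, LT and ST, with cytotoxicity read by fluorescence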
[13] = target: Melanocortin receptor 4 (Homo sapiens, UniProt P32245); type: functional, cell-based;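 also: Cell-based assay with luminescence read-out, confirmatory dose-response testing for agonist activity of biased ligands at MC4R; human U2OS cells with tagged receptor and beta-arrestin; potency of agonists that increase receptor coupling to beta-arrestin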
Chain of Melanocortin receptor 4 (P32245 whole entry): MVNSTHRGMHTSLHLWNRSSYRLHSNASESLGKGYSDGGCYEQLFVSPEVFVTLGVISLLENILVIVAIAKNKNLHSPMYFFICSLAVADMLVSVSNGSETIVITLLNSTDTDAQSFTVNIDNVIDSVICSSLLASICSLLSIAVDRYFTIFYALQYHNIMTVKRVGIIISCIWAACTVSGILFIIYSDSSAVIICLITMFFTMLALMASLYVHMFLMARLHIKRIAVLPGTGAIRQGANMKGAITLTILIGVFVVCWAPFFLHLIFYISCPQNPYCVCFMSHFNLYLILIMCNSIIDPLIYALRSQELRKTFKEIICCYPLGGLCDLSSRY

[14] = NIH-3T3 fibroblast cytotoxicity, dose response, cytotoxicity control, cell-based, fluorescence, Alamar Blue, secondary assay (AID 2327); type: functional;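 also: NIH-3T3 mouse fibroblasts cultured with fluconazole at 8 µg/mL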
[15] = C. albicans growth with fluconazole, confirmation, fluorescence, retest (AID 2467); type: functional, cell-based
[16] = target: Intestinal-type alkaline phosphatase (Mus musculus, UniProt P24822); assay: PubChem AID 488874; type: functional
Chain of Intestinal-type alkaline phosphatase (Mus musculus, UniProt P24822) (P24822 whole entry): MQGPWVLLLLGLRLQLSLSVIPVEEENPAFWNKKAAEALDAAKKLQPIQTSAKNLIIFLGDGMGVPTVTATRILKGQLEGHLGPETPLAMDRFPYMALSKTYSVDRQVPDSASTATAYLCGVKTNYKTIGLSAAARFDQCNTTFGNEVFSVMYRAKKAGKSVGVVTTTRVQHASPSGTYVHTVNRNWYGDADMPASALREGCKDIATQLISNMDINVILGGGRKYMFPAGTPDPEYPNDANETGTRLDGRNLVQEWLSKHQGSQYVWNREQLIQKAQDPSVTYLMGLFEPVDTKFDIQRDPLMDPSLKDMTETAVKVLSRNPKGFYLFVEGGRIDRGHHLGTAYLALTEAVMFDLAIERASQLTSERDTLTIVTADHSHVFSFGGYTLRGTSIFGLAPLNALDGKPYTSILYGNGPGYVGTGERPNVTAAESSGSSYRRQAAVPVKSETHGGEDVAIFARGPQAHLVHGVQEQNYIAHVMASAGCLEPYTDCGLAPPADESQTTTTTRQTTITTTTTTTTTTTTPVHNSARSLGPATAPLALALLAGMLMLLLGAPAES

[17] = target: T1, Intestinal-type alkaline phosphatase (Homo sapiens, UniProt P09923); assay: human intestinal alkaline phosphatase activators, dose response, biochemical, luminescence, uHTS hits (AID 463120); type: functional
T1 sequence (P09923 whole entry): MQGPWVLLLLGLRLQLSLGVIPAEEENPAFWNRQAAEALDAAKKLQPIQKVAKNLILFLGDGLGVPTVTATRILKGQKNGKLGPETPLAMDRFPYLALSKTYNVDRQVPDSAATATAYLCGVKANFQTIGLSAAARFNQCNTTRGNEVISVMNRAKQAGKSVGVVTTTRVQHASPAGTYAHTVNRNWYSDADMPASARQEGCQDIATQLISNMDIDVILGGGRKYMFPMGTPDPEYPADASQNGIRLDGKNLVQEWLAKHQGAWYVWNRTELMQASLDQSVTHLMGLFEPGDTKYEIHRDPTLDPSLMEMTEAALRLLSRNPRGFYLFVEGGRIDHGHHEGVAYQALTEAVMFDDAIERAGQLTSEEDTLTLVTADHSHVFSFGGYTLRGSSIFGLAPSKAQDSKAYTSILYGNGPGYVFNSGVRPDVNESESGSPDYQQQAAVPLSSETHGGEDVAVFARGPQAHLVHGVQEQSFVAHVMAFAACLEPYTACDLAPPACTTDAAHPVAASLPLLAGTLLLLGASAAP

[18] = target: T1, Intestinal-type alkaline phosphatase; assay: human IAP activators, dose response, biochemical, luminescent, uHTS hits, set 2 (AID 488817); type: functional;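 also: potency of activators that raise enzyme activity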
[19] = target: T2, Alkaline phosphatase, tissue-nonspecific isozyme (Homo sapiens, UniProt P05186); assay: TNAP enzyme activators, dose response, selectivity assay for human IAP activator project, biochemical, TNAP isozyme, human IAP uHTS hits (AID 488886); type: functional;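 also: potency of compounds raising TNAP activity as a selectivity check on IAP activators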
T2 sequence (P05186 whole entry): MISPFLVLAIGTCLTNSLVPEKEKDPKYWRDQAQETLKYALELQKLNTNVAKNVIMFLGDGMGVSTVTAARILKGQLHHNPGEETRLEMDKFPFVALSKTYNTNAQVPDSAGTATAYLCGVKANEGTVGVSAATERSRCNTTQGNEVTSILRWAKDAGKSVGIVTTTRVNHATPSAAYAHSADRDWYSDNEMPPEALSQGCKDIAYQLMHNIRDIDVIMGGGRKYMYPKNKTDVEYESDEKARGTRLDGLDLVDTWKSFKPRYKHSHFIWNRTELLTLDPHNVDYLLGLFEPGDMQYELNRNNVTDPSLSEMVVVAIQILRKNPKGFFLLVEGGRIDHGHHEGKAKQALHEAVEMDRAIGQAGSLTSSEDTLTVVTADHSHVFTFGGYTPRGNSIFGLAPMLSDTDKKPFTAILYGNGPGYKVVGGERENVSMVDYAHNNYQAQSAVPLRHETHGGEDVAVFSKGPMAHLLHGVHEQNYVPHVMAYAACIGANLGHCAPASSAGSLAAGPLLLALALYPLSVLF

[20] = human group III sPLA2 inhibitors, dose response, biochemical, QFRET, IC50 (AID 743457);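 also: green fluorescence rise as the enzyme cleaves BODIPY PC-A2 in liposomes; potency for inhibition of the enzyme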
[21] = target: G-protein coupled receptor 35 (Homo sapiens, UniProt Q9HC97); assay: GPR35 antagonists blocking zaprinast-driven arrestin recruitment, primary screen, imaging, U2OS, beta-arrestin-GFP, zaprinast agonist (AID 2058); type: functional;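 also: antagonist potency meaning inhibition of agonist-induced arrestin redistribution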
Chain of G-protein coupled receptor 35 (Q9HC97 whole entry): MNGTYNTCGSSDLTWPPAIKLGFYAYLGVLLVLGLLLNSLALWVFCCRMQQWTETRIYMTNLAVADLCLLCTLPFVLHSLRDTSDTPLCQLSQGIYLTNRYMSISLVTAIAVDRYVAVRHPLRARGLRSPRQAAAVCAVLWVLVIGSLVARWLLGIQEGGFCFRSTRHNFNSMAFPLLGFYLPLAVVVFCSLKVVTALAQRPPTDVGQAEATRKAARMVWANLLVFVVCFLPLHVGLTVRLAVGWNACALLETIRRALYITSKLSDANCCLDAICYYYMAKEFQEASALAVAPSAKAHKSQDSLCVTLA

[22] = target: T3, Rac GTPase-activating protein 1 (Homo sapiens, UniProt Q9H0H5); assay: MgcRacGAP GTPase-activating activity inhibitors, confirmation, biochemical, ADP Hunter fluorescence, primary and confirmatory (AID 624330); type: functional
T3 sequence (Q9H0H5 whole entry): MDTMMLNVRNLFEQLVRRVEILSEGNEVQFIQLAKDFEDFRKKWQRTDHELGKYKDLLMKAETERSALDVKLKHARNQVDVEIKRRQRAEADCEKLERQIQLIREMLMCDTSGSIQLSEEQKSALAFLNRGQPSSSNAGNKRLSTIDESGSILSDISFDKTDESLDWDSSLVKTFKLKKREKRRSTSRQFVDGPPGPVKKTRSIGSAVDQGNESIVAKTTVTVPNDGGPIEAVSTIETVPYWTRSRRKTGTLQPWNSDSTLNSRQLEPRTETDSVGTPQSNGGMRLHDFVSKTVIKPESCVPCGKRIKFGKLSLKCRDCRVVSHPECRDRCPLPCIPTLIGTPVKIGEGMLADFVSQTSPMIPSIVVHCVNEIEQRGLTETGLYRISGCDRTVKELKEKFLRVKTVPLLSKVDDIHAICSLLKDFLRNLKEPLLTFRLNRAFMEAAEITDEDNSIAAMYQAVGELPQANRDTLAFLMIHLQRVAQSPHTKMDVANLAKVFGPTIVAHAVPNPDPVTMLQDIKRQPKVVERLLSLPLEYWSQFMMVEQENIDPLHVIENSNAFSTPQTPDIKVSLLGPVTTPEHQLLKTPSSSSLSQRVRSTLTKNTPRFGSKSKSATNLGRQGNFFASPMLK

[23] = target: Trypsin (Sus scrofa, UniProt P00761); assay: porcine trypsin inhibitors, dose response, selectivity assay for Rce1 protease inhibitor project, biochemical, quenched peptide fluorescence, cherry-pick (AID 488789)
Chain of Trypsin (P00761 whole entry): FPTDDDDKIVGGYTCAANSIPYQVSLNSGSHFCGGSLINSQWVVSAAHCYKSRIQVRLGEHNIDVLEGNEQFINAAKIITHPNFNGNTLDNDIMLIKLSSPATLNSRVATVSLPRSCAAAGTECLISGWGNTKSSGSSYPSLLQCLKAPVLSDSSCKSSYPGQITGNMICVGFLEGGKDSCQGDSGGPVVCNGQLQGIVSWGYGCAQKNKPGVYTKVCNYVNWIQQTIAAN

[24] = target: CAAX prenyl protease 2 (Saccharomyces cerevisiae S288c, UniProt Q03530); type: biochemical
Chain of CAAX prenyl protease 2 (Q03530 whole entry): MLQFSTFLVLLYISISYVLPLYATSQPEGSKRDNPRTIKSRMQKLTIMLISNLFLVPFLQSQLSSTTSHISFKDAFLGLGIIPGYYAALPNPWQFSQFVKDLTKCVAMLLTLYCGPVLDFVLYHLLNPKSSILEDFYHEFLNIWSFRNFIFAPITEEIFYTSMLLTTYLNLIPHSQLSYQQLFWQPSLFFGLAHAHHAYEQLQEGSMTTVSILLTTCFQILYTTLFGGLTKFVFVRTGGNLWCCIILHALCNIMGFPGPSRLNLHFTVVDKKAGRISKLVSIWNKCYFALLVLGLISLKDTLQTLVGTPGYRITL

[25] = system: J774.A1; assay: Confirmation of image-based Screening Assay for Inhibitors of Phagocytosis. [Related pubchem assays (depositor defined):AID1029, AID1643]; type: functional, cell-based; conditions: Mus musculus
[26] = cytotoxicity in HEK-293T cells, dose response, cytotoxicity control for TCR NF-kB inhibitor project, luminescence, T-cell screen hits (AID 489026); type: functional, cell-based;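 also: cells exposed to compound about 14 hours before the viability readout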

## CCCOc1ccc(C(=O)C(CCC(CNCC)C(=O)c2ccc(OCCC)cc2)CNCC)cc1 (centres undefined)
[1]
  EC50: > 120 µM (not active)
[2]
  EC50: 2.57 µM (inconclusive)
[3]
  EC50: 8.92 µM (active)
[4]
  EC50: 6.08 µM (active)
[5]
  EC50: 4.61 µM (active)
[6]
  EC50: 1.76 µM (active)
[7]
  EC50: > 55.7 µM (not active)
[8]
  EC50: 1.88 µM (active)
[9]
  EC50: 2.72 µM (inconclusive)
[10]
  EC50: 3.31 µM (active)
[11]
  CC50: 3.18 µM (active)
[12]
  EC50: 0.513 µM (active)
[13]
  EC50: > 89.2 µM (inactive)

## O=C(NNC(=S)NC1CCCCC1)c1ccccc1Br
[14]
  EC50: 21.7 µM (inconclusive)
[15]
  EC50: 2.94 µM (active)
[16]
  IC50: 50.3 µM (active)
[17]
  EC50: 12.1 µM (active)
[18]
  EC50: 14.9 µM (active)
[19]
  EC50: 16.1 µM (active)
[20]
  IC50: > 122 µM (inactive)

## Nc1[nH]c2cc([N+](=O)[O-])ccc2c1-c1ccccn1
[21]
  IC50: 0.787 µM (active)
[22]
  IC50: 82.9 µM (active)

## COc1ccc(-c2cc3nc(C)c(CCC(=O)N4CCN(c5ccccn5)CC4)c(C)n3n2)c(OC)c1
[23]
  AC50: 7.2 µM (active)
[24]
  AC50: > 100 µM (inactive)

## COC(=O)c1[nH]c2c(c1C)C(=O)CC(c1cccs1)C2 (centres undefined)
[1]
  EC50: 4.98 µM (active)
[2]
  EC50: 1.02 µM (active)
[3]
  EC50: 7.34 µM (active)
[4]
  EC50: 0.469 µM (active)
[5]
  EC50: 3.72 µM (inconclusive)
[25]
  IC50: 0.116 µM (active)
[9]
  EC50: 0.873 µM (inconclusive)
[10]
  EC50: 0.912 µM (active)
[26]
  IC50: > 80 µM (inactive)
[12]
  EC50: 0.299 µM (active)
